Earlier results as cited in patent EP3332769A1, “SOLID ORAL PHARMACEUTICAL COMPOSITIONS OF TICAGRELOR” (Sanovel Ilac Sanayi ve Ticaret A.S., priority 2016, dated 2018).
In brackets after ≈: the same amount, converted by molar mass.

Conditions: in water

aqueous solubility: 10 µg/mL (≈ 19.1 µM)
SMILES: CCCSc1nc(N[C@@H]2C[C@H]2c2ccc(F)c(F)c2)c2nnn([C@@H]3C[C@H](OCCO)[C@@H](O)[C@H]3O)c2n1 [Ticagrelor, (1 S,2S,3R,5S)-3-[7-[(1 R,2S)-2-(3,4-Difluorophenyl)cyclopropylamino]-5-(propylthio)-3H-[1,2,3]triazolo[4,5-d]pyrimidin-3-yl] -5-(2-hydroxyethoxy) cyclopentane-1,2-diol]
